Experimental findings from patent EP0863880B1, “NOVEL 1-AR(ALK)YL-IMIDAZOLIN-2-ONES CONTAINING A DISUBSTITUTED AMINE RADICAL IN THE 4TH POSITION, HAVING AN ANTI-CONVULSIVE EFFECT, AND PROCESS FOR THEIR PRODUCTION” (elbion AG, priority 1995, dated 1997) are described below.

One data set relates to maximaler Elektroschock. Nature of the data set: maximal electroshock (MES) test, mouse i.p. It counts as in vivo. As to conditions: Maus i.p.
The next data set has as its system s.c. Pentetrazol. Nature of the data set: s.c. pentetrazole (PTZ) test, mouse i.p. Type of data set: in vivo. As to conditions: Maus i.p.
Data set [1] in a line: octanol/water partition coefficient. Type of data set: physicochemical. The settings on record: Octanol/Wasser, read-out: log P (Verteilungskoeffizient Octanol/Wasser).
The next data set has as its system maximalen Elektroschock. In words: maximal electroshock test, rat p.o. The settings on record: po, read-out: ED50 (p.o.). (In general: Protection in the maximal electroshock model is a classic sign of anticonvulsant action.)
The test system of the next data set is Neurotoxizität. As to conditions: Ratte, p.o.
Another data set deals with s.c. Pentetrazol-Test. In words: s.c. pentetrazole test, rat.

A value given as a limit tells only on which side of the number the result lay.

On to `NC(=O)N1c2ccccc2C=Cc2ccccc21` [Carbamazepin, reference compound], for which the “Wirkung in % der geschützten Tiere” value in the data set on maximaler Elektroschock (Dosis 100 mg/kg) came to 100%; in the data set on s.c. Pentetrazol (Dosis 100 mg/kg), 0%.

For `CCCC(CCC)C(=O)O` [Valproat, reference compound], the “Wirkung in % der geschützten Tiere” value in the data set with maximaler Elektroschock (Dosis 100 mg/kg) amounted to 0%; in the data set on s.c. Pentetrazol (Dosis 100 mg/kg) it was 30%.

As to `O=C1N=C(N2CCOCC2)CN1c1ccccc1` [Verbindung 1], the “Wirkung in % der geschützten Tiere” value with maximaler Elektroschock (Dosis 100 mg/kg) and with s.c. Pentetrazol (Dosis 100 mg/kg) was 30% each time. Besides, the logP in data set [1] is 0.64.

The ED50 is the dose that gives a 50% effect, or the effect in half of the subjects. Regarding `O=C1N=C(N2CCOCC2)CN1c1ccc(Cl)cc1` [Verbindung 2, 1-(4-Chlorphenyl)-4-morpholinoimidazolin-2-on], the “Wirkung in % der geschützten Tiere” value in the data set with maximaler Elektroschock (Dosis 300 mg/kg) came out at 30%; in the data set with s.c. Pentetrazol (Dosis 30 mg/kg), 70%. For the same compound, the logP in data set [1] amounted to 1.48. Further, the ED50 with maximalen Elektroschock was found to be 21 mg/kg; in the data set with s.c. Pentetrazol-Test, 16 mg/kg. For the same compound, in the data set with Neurotoxizität, the NT50 is given as more than 400 mg/kg.

For the compound `O=C1N=C(N2CCCCC2)CN1c1ccc(Cl)cc1` [Verbindung 3], the “Wirkung in % der geschützten Tiere” value in the data set with maximaler Elektroschock (Dosis 100 mg/kg) and in the data set with s.c. Pentetrazol (Dosis 100 mg/kg) was 100% each time. Besides, in data set [1], the logP came to 2.29.

For the compound `O=C1N=C(N2CCOCC2)CN1Cc1ccccc1` [Verbindung 4], the “Wirkung in % der geschützten Tiere” value in the data set with maximaler Elektroschock (Dosis 300 mg/kg) and in the data set with s.c. Pentetrazol (Dosis 300 mg/kg) was 30% in each case. For the same compound, in data set [1], the logP was determined as 0.48.

Turning to `CN1CCN(C2=NC(=O)N(c3ccc(Cl)cc3)C2)CC1` [Verbindung 5], the “Wirkung in % der geschützten Tiere” value in the data set on maximaler Elektroschock (Dosis 300 mg/kg) and in the data set with s.c. Pentetrazol (Dosis 300 mg/kg) was 100% in each case. For the same compound, in data set [1], the logP came out at 2.17.

Turning to `CN(C)C1=NC(=O)N(c2ccc(Cl)cc2)C1` [Verbindung 6], the entries for the “Wirkung in % der geschützten Tiere” value in the data set on maximaler Elektroschock (Dosis 300 mg/kg) and with s.c. Pentetrazol (Dosis 100 mg/kg) were 100% and 20%, respectively. The logP in data set [1] came to 1.61.

With `COc1ccc(N2CC(N3CCCCC3)=NC2=O)cc1` [Verbindung 7], the “Wirkung in % der geschützten Tiere” value in the data set on maximaler Elektroschock (Dosis 300 mg/kg) and with s.c. Pentetrazol (Dosis 100 mg/kg) was 100% in each case. The logP in data set [1] is 1.53.

As for `O=C1N=C(N2CCOCC2)CN1c1ccc(Br)cc1` [Verbindung 8], the “Wirkung in % der geschützten Tiere” value in the data set with maximaler Elektroschock (Dosis 300 mg/kg) stood at 30%; in the data set with s.c. Pentetrazol (Dosis 100 mg/kg) it was 100%. Further, in data set [1], the logP was 1.45.

Consider `O=C1N=C(N2CCOCC2)CN1c1ccc(F)cc1` [Verbindung 9], for which the “Wirkung in % der geschützten Tiere” value with maximaler Elektroschock (Dosis 100 mg/kg) turned out to be 30%; with s.c. Pentetrazol (Dosis 100 mg/kg), 100%. Besides, the logP in data set [1] turned out to be 0.97.

Turning to `O=C1N=C(N2CCOCC2)CN1c1cccc(Cl)c1` [Verbindung 10], the “Wirkung in % der geschützten Tiere” value in the data set on maximaler Elektroschock (Dosis 300 mg/kg) is 10%; with s.c. Pentetrazol (Dosis 300 mg/kg) it was 70%. For the same compound, in data set [1], the logP amounted to 1.28.

Take `O=C1N=C(N2CCCCCC2)CN1c1ccc(Cl)cc1` [Verbindung 11]: the “Wirkung in % der geschützten Tiere” value is 100% with maximaler Elektroschock (Dosis 300 mg/kg) and 40% in the data set with s.c. Pentetrazol (Dosis 300 mg/kg). Further, the logP in data set [1] was 2.56.
